Source: PubChem BioAssay AID2060882 (Molecular Pharmacology Branch, DTP, NCI, 2025)
Each block holds one compound with its values, some of them ahead of it.

Tested on: 898857-211-R-J1-PDC complex spheroids, growth % test/control
Assay: Anticancer human tumor 898857-211-R-J1-PDC patient-derived melanoma cell line growth inhibition [RAS]
Details: for IC50: curve of first compound; for viability, T/C: stronger effect = lower value
In short: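 Multi-cell-type spheroids: tumor cells plus HUVEC endothelial cells and mesenchymal stem cells. RAS-pathway inhibitors were combined with targeted agents, each dosed in half-log steps down from clinical Cmax, or from 10 microM when Cmax was unknown.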

[1] = second compound 0.000949 µM, first compound 0.00316 µM
[2] = second compound 0.000949 µM, first compound 0.01 µM
[3] = second compound 0.000949 µM, first compound 0.0316 µM
[4] = second compound 0.000949 µM, first compound 0.1 µM
[5] = second compound 0.003 µM, first compound 0.00316 µM
[6] = second compound 0.003 µM, first compound 0.01 µM
[7] = second compound 0.003 µM, first compound 0.0316 µM
[8] = second compound 0.003 µM, first compound 0.1 µM
[9] = second compound 0.00949 µM, first compound 0.00316 µM
[10] = second compound 0.00949 µM, first compound 0.01 µM
[11] = second compound 0.00949 µM, first compound 0.0316 µM
[12] = second compound 0.00949 µM, first compound 0.1 µM
[13] = second compound 0.03 µM, first compound 0.00316 µM
[14] = second compound 0.03 µM, first compound 0.01 µM
[15] = second compound 0.03 µM, first compound 0.0316 µM
[16] = second compound 0.03 µM, first compound 0.1 µM
[17] = second compound 0.0949 µM, first compound 0.00316 µM
[18] = second compound 0.0949 µM, first compound 0.01 µM
[19] = second compound 0.0949 µM, first compound 0.0316 µM
[20] = second compound 0.0949 µM, first compound 0.1 µM
[21] = second compound 0.3 µM, first compound 0.00316 µM
[22] = second compound 0.3 µM, first compound 0.01 µM
[23] = second compound 0.3 µM, first compound 0.0316 µM
[24] = second compound 0.3 µM, first compound 0.1 µM
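Further: spheroids exposed to compound for seven days before readout.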
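Wherever viability, T/C is given: 100% = DMSO vehicle control wells.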

IC50 (second compound 0.000949 µM): < 3.16 nM | IC50 (second compound 0.003 µM): < 3.16 nM | IC50 (second compound 0.00949 µM): < 3.16 nM | IC50 (second compound 0.03 µM): < 3.16 nM | IC50 (second compound 0.0949 µM): < 3.16 nM | IC50 (second compound 0.3 µM): < 3.16 nM
SMILES: O=C(c1ccc(F)c(F)c1Nc1ccc(I)cc1F)N1CC(O)([C@@H]2CCCCN2)C1 + CCn1c(-c2cc(N3CCN(C)CC3)cnc2C(C)OC)c2c3cc(ccc31)-c1csc(n1)CC(NC(=O)C1CC1C)C(=O)N1CCCC(N1)C(=O)OCC(C)(C)C2
viability, T/C [1]: 39.8% | viability, T/C [2]: 24.2% | viability, T/C [3]: 16.8% | viability, T/C [4]: 13.9% | viability, T/C (second compound 0.000949 µM, first compound 0.316 µM): 13% | viability, T/C (second compound 0.000949 µM, first compound 1 µM): 9.63% | viability, T/C [5]: 33.1% | viability, T/C [6]: 21.3% | viability, T/C [7]: 17.5% | viability, T/C [8]: 12.4% | viability, T/C (second compound 0.003 µM, first compound 0.316 µM): 10.3% | viability, T/C (second compound 0.003 µM, first compound 1 µM): 6.63% | viability, T/C [9]: 32% | viability, T/C [10]: 20.5% | viability, T/C [11]: 17.8% | viability, T/C [12]: 14.2% | viability, T/C (second compound 0.00949 µM, first compound 0.316 µM): 11.3% | viability, T/C (second compound 0.00949 µM, first compound 1 µM): 3.23% | viability, T/C [13]: 24.2% | viability, T/C [14]: 20.7% | viability, T/C [15]: 17.8% | viability, T/C [16]: 12.8% | viability, T/C (second compound 0.03 µM, first compound 0.316 µM): 7.8% | viability, T/C (second compound 0.03 µM, first compound 1 µM): 2.22% | viability, T/C [17]: 24.6% | viability, T/C [18]: 20.2% | viability, T/C [19]: 14.7% | viability, T/C [20]: 10.4% | viability, T/C (second compound 0.0949 µM, first compound 0.316 µM): 3.52% | viability, T/C (second compound 0.0949 µM, first compound 1 µM): 1.46% | viability, T/C [21]: 24.1% | viability, T/C [22]: 19.1% | viability, T/C [23]: 13.3% | viability, T/C [24]: 8.51% | viability, T/C (second compound 0.3 µM, first compound 0.316 µM): 3.03% | viability, T/C (second compound 0.3 µM, first compound 1 µM): 1.17%

IC50 (second compound 0.000949 µM): 27.1 nM | IC50 (second compound 0.003 µM): 23.8 nM | IC50 (second compound 0.00949 µM): 23.8 nM | IC50 (second compound 0.03 µM): 21 nM | IC50 (second compound 0.0949 µM): 15.1 nM | IC50 (second compound 0.3 µM): 7.05 nM
SMILES: CC(C)n1nc(-c2ccc3oc(N)nc3c2)c2c(N)ncnc21 + CCn1c(-c2cccnc2C(C)OC)c2c3cc(ccc31)N1CCOC(CC(NC(=O)C(C(C)C)N(C)C(=O)C3(F)CCN(C(=O)C#CC(C)(C)N(C)C)CC3)C(=O)N3CCCC(N3)C(=O)OCC(C)(C)C2)C1
viability, T/C (second compound 0.000949 µM, first compound 0.000316 µM): 107% | viability, T/C (second compound 0.000949 µM, first compound 0.001 µM): 91.6% | viability, T/C [1]: 87.2% | viability, T/C [2]: 68.7% | viability, T/C [3]: 46.4% | viability, T/C [4]: 20.5% | viability, T/C (second compound 0.003 µM, first compound 0.000316 µM): 106% | viability, T/C (second compound 0.003 µM, first compound 0.001 µM): 90.9% | viability, T/C [5]: 78.8% | viability, T/C [6]: 70% | viability, T/C [7]: 44.8% | viability, T/C [8]: 20.4% | viability, T/C (second compound 0.00949 µM, first compound 0.000316 µM): 99.1% | viability, T/C (second compound 0.00949 µM, first compound 0.001 µM): 99.2% | viability, T/C [9]: 86.2% | viability, T/C [10]: 75.1% | viability, T/C [11]: 41.3% | viability, T/C [12]: 17.7% | viability, T/C (second compound 0.03 µM, first compound 0.000316 µM): 103% | viability, T/C (second compound 0.03 µM, first compound 0.001 µM): 86.9% | viability, T/C [13]: 79.9% | viability, T/C [14]: 72.1% | viability, T/C [15]: 36.8% | viability, T/C [16]: 17% | viability, T/C (second compound 0.0949 µM, first compound 0.000316 µM): 89.1% | viability, T/C (second compound 0.0949 µM, first compound 0.001 µM): 87.2% | viability, T/C [17]: 86.5% | viability, T/C [18]: 55.6% | viability, T/C [19]: 35.5% | viability, T/C [20]: 16.2% | viability, T/C (second compound 0.3 µM, first compound 0.000316 µM): 74.9% | viability, T/C (second compound 0.3 µM, first compound 0.001 µM): 64% | viability, T/C [21]: 61.1% | viability, T/C [22]: 46.3% | viability, T/C [23]: 30% | viability, T/C [24]: 13.6%
